From US20230322770A1, “SUBSTITUTED HETEROARYL COMPOUNDS USEFUL AS INHIBITORS OF TLR9” (BRISTOL-MYERS SQUIBB COMPANY, priority 2020, published 2023) come the findings set out here.

Where only a bound is given, the exact number is not on record here.

As usually defined, the IC50 is the concentration needed to halve the response being measured. A lower IC50 goes with higher potency.

Common to all, as to format: cell-based
Experiment [1] addresses T1, human TLR7 (Homo sapiens, UniProt Q9NYK1).
T1 construct: host or cells: HEK-Blue cells (HEK293-derived reporter line)
T1 sequence (Q9NYK1 27-1049): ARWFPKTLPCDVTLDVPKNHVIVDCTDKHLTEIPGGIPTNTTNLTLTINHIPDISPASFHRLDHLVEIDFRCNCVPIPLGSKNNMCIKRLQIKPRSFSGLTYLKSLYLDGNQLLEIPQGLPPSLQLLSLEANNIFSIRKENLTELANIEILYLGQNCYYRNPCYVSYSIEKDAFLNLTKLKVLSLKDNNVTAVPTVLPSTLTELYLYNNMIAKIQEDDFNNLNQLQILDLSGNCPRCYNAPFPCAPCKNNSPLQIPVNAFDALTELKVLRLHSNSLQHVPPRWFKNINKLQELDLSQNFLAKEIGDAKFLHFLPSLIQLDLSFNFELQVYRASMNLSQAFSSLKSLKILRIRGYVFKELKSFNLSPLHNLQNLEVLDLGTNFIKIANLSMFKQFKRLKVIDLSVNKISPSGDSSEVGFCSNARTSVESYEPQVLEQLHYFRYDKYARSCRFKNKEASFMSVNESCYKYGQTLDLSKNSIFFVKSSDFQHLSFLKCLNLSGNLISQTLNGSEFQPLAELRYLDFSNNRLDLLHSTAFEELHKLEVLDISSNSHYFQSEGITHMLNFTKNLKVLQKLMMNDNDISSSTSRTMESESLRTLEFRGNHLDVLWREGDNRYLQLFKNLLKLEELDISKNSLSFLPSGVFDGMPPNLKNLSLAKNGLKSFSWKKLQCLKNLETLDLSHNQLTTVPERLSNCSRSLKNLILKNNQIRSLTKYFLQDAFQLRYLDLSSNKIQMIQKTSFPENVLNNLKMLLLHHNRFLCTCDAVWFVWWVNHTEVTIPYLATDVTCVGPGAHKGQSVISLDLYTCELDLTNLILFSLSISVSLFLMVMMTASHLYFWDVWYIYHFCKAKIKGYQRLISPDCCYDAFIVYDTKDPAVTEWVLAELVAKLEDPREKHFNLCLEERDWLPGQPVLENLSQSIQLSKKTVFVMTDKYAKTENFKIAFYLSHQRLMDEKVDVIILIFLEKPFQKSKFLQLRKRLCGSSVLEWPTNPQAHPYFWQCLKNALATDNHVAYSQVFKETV
Kind of experiment: TLR7 inhibition reporter assay (HEK-Blue cells, SEAP reporter). Particulars: HEK-Blue cells overexpressing human TLR7; stimulated with gardiquimod 7.5 μM; SEAP after 22 hour incubation. How it is done: (§1) TLR7/8/9 Inhibition Reporter Assays
(§2) HEK-Blue™-cells (Invivogen) overexpressing human TLR7, TLR8 or TLR9 receptors were used for screening inhibitors of these receptors using an inducible SEAP (secreted embryonic alkaline phosphatase) reporter gene under the control of the IFN-β minimal promoter fused to five NF-κB and AP-1-binding sites. Briefly, cells are seeded into Greiner 384 well plates (15000 cells per well for TLR7, 20,000 for TLR8 and 25,000 for TLR9) and then treated with test compounds in DMSO to yield a final dose response concentration range of 0.05 nM-50 μM. After a 30 minute compound pre-treatment at room temperature, the cells are then stimulated with a TLR7 ligand (gardiquimod at a final concentration of 7.5 μM), TLR8 ligand (R848 at a final concentration of 15.9 μM) or TLR9 ligand (ODN2006 at a final concentration of 5 nM) to activate NF-κB and AP-1 which induce the production of SEAP. After a 22 hour incubation at 37° C., 5% CO2, SEAP levels are determined with the addition of HEK-Blue™ Detection reagent (Invivogen), a cell culture medium that allows for detection of SEAP, according to manufacturer's specifications. The percent inhibition is determined as the % reduction in the HEK-Blue signal present in wells treated with agonist plus DMSO alone compared to wells treated with a known inhibitor.
(In general: A reporter such as luciferase makes a cellular process visible.)

For experiment [2], the target named is T2, human TLR8 (Homo sapiens, UniProt Q9NR97).
T2 construct: host or cells: HEK-Blue cells (HEK293-derived reporter line)
T2 sequence (Q9NR97 27-1041): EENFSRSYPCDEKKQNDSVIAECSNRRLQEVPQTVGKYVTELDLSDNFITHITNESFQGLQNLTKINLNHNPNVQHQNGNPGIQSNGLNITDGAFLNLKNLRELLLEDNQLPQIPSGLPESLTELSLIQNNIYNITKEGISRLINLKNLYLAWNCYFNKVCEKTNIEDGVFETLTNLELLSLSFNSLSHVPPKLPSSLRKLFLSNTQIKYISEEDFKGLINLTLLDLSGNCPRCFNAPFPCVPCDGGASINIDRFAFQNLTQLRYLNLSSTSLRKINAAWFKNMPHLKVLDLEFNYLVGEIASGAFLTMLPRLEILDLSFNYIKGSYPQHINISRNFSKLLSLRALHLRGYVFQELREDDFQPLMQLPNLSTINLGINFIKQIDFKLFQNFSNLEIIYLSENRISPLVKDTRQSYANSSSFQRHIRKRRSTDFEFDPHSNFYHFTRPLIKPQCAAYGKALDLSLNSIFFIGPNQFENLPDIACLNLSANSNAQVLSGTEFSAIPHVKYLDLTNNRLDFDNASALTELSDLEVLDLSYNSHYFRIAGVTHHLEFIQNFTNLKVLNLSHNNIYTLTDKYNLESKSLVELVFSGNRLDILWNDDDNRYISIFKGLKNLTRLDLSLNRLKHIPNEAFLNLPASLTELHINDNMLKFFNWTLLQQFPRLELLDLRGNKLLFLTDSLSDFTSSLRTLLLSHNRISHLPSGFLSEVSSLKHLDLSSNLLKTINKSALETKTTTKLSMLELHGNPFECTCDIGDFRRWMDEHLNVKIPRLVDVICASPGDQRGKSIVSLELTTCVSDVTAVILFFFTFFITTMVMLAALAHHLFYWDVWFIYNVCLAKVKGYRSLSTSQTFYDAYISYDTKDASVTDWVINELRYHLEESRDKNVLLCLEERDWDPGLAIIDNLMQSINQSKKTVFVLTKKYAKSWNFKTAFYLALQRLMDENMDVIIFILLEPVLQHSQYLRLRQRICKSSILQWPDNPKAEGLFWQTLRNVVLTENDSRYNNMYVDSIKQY
Kind of experiment: TLR8 inhibition reporter assay (HEK-Blue cells, SEAP reporter). Particulars: HEK-Blue cells overexpressing human TLR8; stimulated with R848 15.9 μM; SEAP after 22 hour incubation. The procedure:
as §1, §2

Experiment [3] has as its target T3, human TLR9 (Homo sapiens, UniProt Q9NR96).
T3 construct: host or cells: HEK-Blue cells (HEK293-derived reporter line)
T3 sequence (Q9NR96 26-1032): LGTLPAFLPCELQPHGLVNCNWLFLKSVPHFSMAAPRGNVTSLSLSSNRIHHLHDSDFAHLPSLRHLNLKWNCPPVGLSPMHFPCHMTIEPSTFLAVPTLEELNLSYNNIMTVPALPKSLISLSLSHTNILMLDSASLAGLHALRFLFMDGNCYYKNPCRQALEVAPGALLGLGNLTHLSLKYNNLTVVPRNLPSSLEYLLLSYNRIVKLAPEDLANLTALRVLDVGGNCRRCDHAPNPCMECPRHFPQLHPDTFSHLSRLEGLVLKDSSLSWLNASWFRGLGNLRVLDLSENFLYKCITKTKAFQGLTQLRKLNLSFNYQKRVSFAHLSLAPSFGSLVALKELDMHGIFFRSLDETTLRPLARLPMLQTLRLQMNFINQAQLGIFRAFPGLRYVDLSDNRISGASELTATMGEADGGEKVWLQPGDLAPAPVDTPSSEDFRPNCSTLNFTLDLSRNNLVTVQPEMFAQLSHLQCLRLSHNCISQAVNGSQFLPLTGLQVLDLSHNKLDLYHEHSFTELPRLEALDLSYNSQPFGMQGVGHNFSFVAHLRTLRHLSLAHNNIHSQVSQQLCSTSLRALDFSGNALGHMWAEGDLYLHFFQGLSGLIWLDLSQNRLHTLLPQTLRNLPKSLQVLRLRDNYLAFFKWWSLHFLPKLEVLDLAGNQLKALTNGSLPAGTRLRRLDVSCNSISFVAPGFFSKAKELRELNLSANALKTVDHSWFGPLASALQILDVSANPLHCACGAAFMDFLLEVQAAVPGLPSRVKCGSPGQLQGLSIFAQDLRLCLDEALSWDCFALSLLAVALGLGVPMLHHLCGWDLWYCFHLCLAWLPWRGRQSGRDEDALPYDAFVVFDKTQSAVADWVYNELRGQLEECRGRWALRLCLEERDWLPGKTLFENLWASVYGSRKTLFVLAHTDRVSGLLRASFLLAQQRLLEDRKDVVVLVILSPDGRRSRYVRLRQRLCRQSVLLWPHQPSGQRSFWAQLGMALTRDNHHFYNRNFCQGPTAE
As to the kind of experiment: TLR9 inhibition reporter assay (HEK-Blue cells, SEAP reporter). The note with it: HEK-Blue cells overexpressing human TLR9; stimulated with ODN2006 5 nM; SEAP after 22 hour incubation. How it is done:
as §1, §2

For the molecule `COc1ccc(-c2cc3ncc(-c4ccc(N5CCN(CC6CC6)CC5)cc4)cc3n2C)cc1OC` [Example 8, 6-(4-(4-(cyclopropylmethyl)piperazin-1-yl)phenyl)-2-(3,4-dimethoxyphenyl)-1-methyl-1H-pyrrolo[3,2-b]pyridine], the figures for the IC50 in experiment [1] and in experiment [2] were 14.4 µM and 5.6 µM, respectively.
The like results for `COc1ccc(-c2cc3ncc(-c4ccc(C(=O)N5CCN(C(C)C)CC5)cc4)cc3n2C)cc1OC` [Example 5, (4-(2-(3,4-Dimethoxyphenyl)-1-methyl-1H-pyrrolo[3,2-b]pyridin-6-yl)phenyl)(4-isopropylpiperazin-1-yl)methanone] were, in that order, 7.2 µM and 10.2 µM.
Regarding `COc1ccc(-c2cc3ncc(-c4ccc(N5CCNCC5)cc4)cc3n2C)cc1OC` [Example 13, 2-(3,4-dimethoxyphenyl)-1-methyl-6-(4-(piperazin-1-yl)phenyl)-1H-pyrrolo[3,2-b] pyridine], the IC50 in experiment [1] was 3 µM; in experiment [2], 3.6 µM.
Consider `CN(C)S(=O)(=O)c1cccc(-c2cc3ncc(-c4ccc(N5CCN(C6CC6)CC5)cc4)cc3n2C)c1` [Example 44], for which, in experiment [3], the IC50 came out at 0.7 µM. This lies in the sub-micromolar range.
On to `Cn1c(-c2ccc(S(C)(=O)=O)cc2)cc2ncc(-c3ccc(N4CCN(CC(C)(C)O)CC4)cc3)cc21` [Example 15, 2-methyl-1-(4-(4-(1-methyl-2-(4-(methylsulfonyl)phenyl)-1H-pyrrolo[3,2-b]pyridin-6-yl)phenyl)piperazin-1-yl)propan-2-ol], for which the IC50 in experiment [1] is at least 50 µM; in experiment [2], 11.2 µM.
Turning to `CC(C)N1C2CCC1CN(c1ccc(-c3cnc4cc(-c5ccc(S(C)(=O)=O)cc5)n(C)c4c3)cc1)C2` [Example 26], the midpoint of inhibition in experiment [3], the IC50, lay at 0.094 µM.
Regarding `COc1ccc(-c2cc3ncc(-c4ccc(N5CCN(C(C)C)CC5)nc4)cc3n2C)cc1OC` [Example 9, 2-(3,4-dimethoxyphenyl)-6-(6-(4-isopropylpiperazin-1-yl)pyridin-3-yl)-1-methyl-1H-pyrrolo[3,2-b]pyridine], the values for the IC50 in experiment [1] and in experiment [2] were 4.7 µM and 8.7 µM, respectively.
`CC(C)N1[C@H](C)CN(c2ccc(-c3cnc4cc(-c5ccc(S(C)(=O)=O)cc5)n(C)c4c3)cc2)C[C@H]1C` [Example 35] showed an IC50 in experiment [3] of 0.091 µM. That is a double-digit nanomolar value.
As to `COc1ccc(-c2cc3ncc(-c4ccc(N5CCN(C(C)C)CC5)cc4)cc3n2C)cc1F` [Example 10, 2-(3-fluoro-4-methoxyphenyl)-6-(4-(4-isopropylpiperazin-1-yl)phenyl)-1-methyl-1H-pyrrolo[3,2-b]pyridine], the IC50 in experiment [1] was determined as 15.5 µM; in experiment [2], 41.7 µM.
Consider `Cn1c(-c2ccc(S(C)(=O)=O)cc2)cc2ncc(-c3ccc(N4CCN5CCCC5C4)cc3)cc21` (stereo not shown) [Example 27], for which inhibition in experiment [3] was half-maximal at 0.275 µM (IC50).
In the case of `CC(C)CN1CCN(c2ccc(-c3cnc4cc(-c5ccc(S(C)(=O)=O)cc5)[nH]c4c3)cc2)CC1` [Example 14, 6-(4-(4-isobutylpiperazin-1-yl)phenyl)-2-(4-(methylsulfonyl)phenyl)-1H-pyrrolo[3,2-b]pyridine], the IC50 in experiment [1] is 29.6 µM; in experiment [2] it was above 50 µM.
On the same counts, the results for `Cn1c(-c2ccc(S(C)(=O)=O)cc2)cc2ncc(-c3ccc(N4CCN(CCC(C)(C)O)CC4)cc3)cc21` [Example 16, -methyl-4-(4-(4-(1-methyl-2-(4-(methylsulfonyl)phenyl)-1H-pyrrolo[3,2-b]pyridin-6-yl)phenyl)piperazin-1-yl)butan-2-ol] are 8.7 µM and 4.7 µM.
The like results for `CC(C)N1CCN(c2ccc(-c3cnc4cc(-c5ccc(S(C)(=O)=O)cc5)[nH]c4c3)cc2)CC1` [Example 11, 6-(4-(4-isopropylpiperazin-1-yl)phenyl)-2-(4-(methylsulfonyl)phenyl)-1H-pyrrolo[3,2-b]pyridine] were, in that order, 1.9 µM and above 50 µM.
In turn, `Cn1c(-c2ccc(S(C)(=O)=O)cc2F)cc2ncc(-c3ccc(N4CCN(C5CC5)CC4)cc3)cc21` [Example 45] displayed an IC50 in experiment [3] above 50 µM.
Consider `COc1ccc(-c2cc3ncc(-c4ccc(N5CCN(CCC(C)(C)O)CC5)cc4)cc3n2C)cc1OC` [Example 12, 4-(4-(4-(2-(3,4-dimethoxyphenyl)-1-methyl-1H-pyrrolo[3,2-b]pyridin-6-yl)phenyl)piperazin-1-yl)-2-methylbutan-2-ol], for which the IC50 in experiment [1] is 4.8 µM; in experiment [2] it was 1.3 µM.
